Our source for the Bactericidal activity and Cell reduction values is patent US6592867B2, “Antimicrobial composition containing an oxidoreductase and an enhancer of the N-hydroxyanilide-type” (Novozymes A/S, priority 1998, dated 2003).

The structures appear in SMILES notation.

The subject of this experiment is Pseudomonas fluorescens. As to the kind of experiment: Bactericidal activity of phenol oxidizing enzyme plus enhancing agent, surviving cells enumerated by Malthus (Examples 1 and 3). Format: cell-based. Particulars: for Bactericidal activity: 20 min, 40° C.; for Cell reduction: enhancing agent 0.2 mM, hydrogen peroxide 0.5 mM, rCiP 3 POXU/ml, total kill. On the procedure:
Antimicrobial activity was evaluated in 0.05 M MES-buffer (Sigma M8250) (pH 6) or 0.05 HEPES-buffer (Sigma H3375) (pH 8); buffers were sterilised by filter sterilisation. The antimicrobial activity was determined against Pseudomonas fluorescens (Gram et al. 1990, International Journal of Food Microbiology 10: 303-316) and Staphylococcus epidermidis (DSM 20042). Cells were grown in Tryptone Soya Broth (Oxoid CM129) at 30° C. (S. epidermidis) or 25° C. (P. fluorescens) for 24 h and diluted in the MES-buffer to a final cell concentration of approximately 10^6 cfu/ml. The cell suspensions were mixed with rCiP (3 POXU/ml), enhancing agent (0.2 mM) and hydrogen peroxide (0.5 mM) for 20 min at 40° C. The bactericidal activity was determined by incubation in Malthus. Detection times measured by the Malthus instrument were converted to cfu/ml by a calibration curve. Either direct or Indirect Malthus measurements were used when enumerating total survival cells (Malthus Flexi M2060, Malthus Instrument Limited). By the direct measurements, the cell metabolism was determined by conductance measurements in the growth substrate. By the indirect measurements, 3 ml of growth medium was transferred to the outer chamber of the indirect Malthus cells, and 0.5 ml of sterile KOH (0.1 M) was transferred to the inner chamber. The cell suspensions were after enzyme treatment transferred to the outer chamber of the Malthus cell. As cells are growing in the outer chamber they produce CO2 which will dissolve in the KOH in the inner chamber and thereby change the conductance of the KOH. The amount of CO2 formed by the respiring cells surviving the enzyme treatment was used for estimating the number of viable cells. When the conductance change is measurable by the Malthus, a detection time (dt) will be recorded. The dt's were converted to colony counts by use of a calibration curve relating cfu/ml to dt (Johansen et al. 1995. Journal of Applied Bacteriology 78:297-303, Johansen et al. 1997, Applied and Environmental Microbiology 63:3724-3728). Antibacterial activity of Coprinus cinereus peroxidase (rCiP), Polyporus pinsitus laccase (rPpL), Coprinus cinereus laccase (rCcL) and Rhizoctonia solani laccase (rRsL) (as described in WO 95/07988) was determined with different enhancing agents at pH 6 and 8 (buffers; see Example 1). The rCiP was combined with 0.5 mM hydrogen peroxide. Antimicrobial activity of rCiP and rPpL was determined against Pseudomonas fluorescens (Gram et al. 1990, International Journal of Food Microbiology 10:303-316), whereas antimicrobial activity of rCcL and rRsL was determined against Pseudomonas aeruginosa (ATCC 10145). The bactericidal activity was determined as described in example 1. The results are shown as the reduction in living cell number. Thus, a reduction of 4 correspond to a 4 log reduction of living cells e.g. from 10^6 CFU/ml to 10^2 CFU/ml.

For the compound `CC(=O)N(O)c1ccccc1` [N-hydroxyacetanilide], the Bactericidal activity entry (combined system: enhancing agent 0.2 mM, hydrogen peroxide 0.5 mM and rCiP 3 POXU/ml) is listed as “total kill”; the Bactericidal activity entry (enhancing agent (0.2 mM) combined with hydrogen peroxide (0.5 mM), no enzyme) is reported as “No bactericidal activity”; the Bactericidal activity entry (enhancing agent alone (0.2 mM), no enzyme, no hydrogen peroxide) is listed as “No bactericidal activity”. Besides, the Cell reduction entry runs as follows: (pH 6) “approximately 10^6 CFU/ml”; (pH 8) “approximately 10^6 CFU/ml”.
